The CheMixHub ionic liquid set

Assay: xn = mol fraction of the nth substance listed

CN1CCCN(C)C1=O + CCCCCCCCn1cc[n+](C)c1.[Cl-]
viscosity [mPa·s], 100 kPa
Conditions	288.15 K	293.15 K	298.15 K	303.15 K	308.15 K	313.15 K	318.15 K	323.15 K	328.15 K	333.15 K
x2 = 0	4	3.51	3.11	2.78	2.5	2.266	2.064	1.891	1.737	1.595
x2 = 0.0999	15.3	12.48	9.9	8.46	7.27	6.32	5.53	4.88	4.35	3.9
x2 = 0.1998	52.2	40.6	31.8	25.6	21.04	17.5	14.79	12.66	10.9	9.46
x2 = 0.2997	176	128.8	95.4	78.6	61.1	48.4	39	31.9	26.4	21.86
x2 = 0.4004	412	287	224	163.5	122	93.5	72.9	57.5	46.8	38.3
x2 = 0.4993	1016	673	463	326	248	192	144.4	107.7	84.2	67.5
x2 = 0.5981	2302	1467	972	661	462	340	250	186	143.4	110.7
x2 = 0.6984	–	–	1797	1194	815	575	412	311	233	178
x2 = 0.7997	–	–	–	1924	1289	890	632	458	340	257

CCCCCCCCCCCCCC[P+](CCCCCC)(CCCCCC)CCCCCC.c1nnn[n-]1 + CCCCCC[n+]1ccn(C)c1.O=S(=O)([N-]S(=O)(=O)C(F)(F)F)C(F)(F)F
100 kPa
Conditions	viscosity [mPa·s]
283.15 K, x2 = 0.102	1711
283.15 K, x2 = 0.299	1361
283.15 K, x2 = 0.6	662
283.15 K, x2 = 0.8	342
288.15 K, x2 = 0.102	1155
288.15 K, x2 = 0.201	1055
288.15 K, x2 = 0.8	247
288.15 K, x2 = 0.9	158
298.15 K, x2 = 0.102	567
298.15 K, x2 = 0.6	245
303.15 K, x2 = 0.201	382
303.15 K, x2 = 0.701	145
308.15 K, x2 = 0.201	286
308.15 K, x2 = 0.299	253
308.15 K, x2 = 0.8	86
308.15 K, x2 = 0.9	59
313.15 K, x2 = 0.6	112
318.15 K, x2 = 0.349	141

CCCCCC[n+]1ccn(C)c1.F[B-](F)(F)F + CCCCCC[n+]1ccn(C)c1.[Cl-]
101 kPa, x2 = 0
Conditions	electrical conductivity [S/m]	viscosity [mPa·s]
303 K	0.16	–
303.15 K	–	189
308 K	0.205	–
308.15 K	–	145
313 K	0.259	–
313.15 K	–	114
318 K	0.322	–
318.15 K	–	90
323 K	0.397	–
323.15 K	–	73
328 K	0.481	–
328.15 K	–	60
333 K	0.576	–
333.15 K	–	49

CN1CCCN(C)C1=O + CCCCCC[n+]1ccn(C)c1.[Cl-]
viscosity [mPa·s], 100 kPa
Conditions	288.15 K	293.15 K	298.15 K	303.15 K	308.15 K	313.15 K	318.15 K	323.15 K	328.15 K	333.15 K
x2 = 0	4	3.51	3.11	2.78	2.5	2.266	2.064	1.891	1.737	1.595
x2 = 0.1011	9.78	8.21	6.99	6.01	5.22	4.59	4.06	3.63	3.25	2.94
x2 = 0.1987	29.2	23.3	18.82	15.64	13.14	10.05	8.62	7.47	6.53	5.75
x2 = 0.3083	77.7	59.1	45.8	36.3	29.2	23.9	19.81	16.38	13.92	12.29
x2 = 0.3981	184	133.6	99.3	75.6	63.8	50.5	40.6	33	27.5	23.11
x2 = 0.4957	412	283	215	157.4	117.8	90.1	70.2	55.6	44.6	36.3
x2 = 0.6008	897	600	418	296	215	158	121	93.6	73.9	58.6
x2 = 0.6983	2019	1294	856	583	408	294	215	163.7	124.9	96.8
x2 = 0.7961	–	2416	1565	1044	708	496	357	261	196	148.4

CCCCCC[n+]1ccn(C)c1.F[B-](F)(F)F + CCCCCO
101.33 kPa, x2 = 0.865
Conditions	viscosity [mPa·s]
315 K	5.31
315.35 K	4.93
315.39 K	4.9
315.5 K	4.85
315.63 K	4.78
315.79 K	4.73
315.84 K	4.71
315.86 K	4.71
318.02 K	4.19

CC(=O)[O-].CCCC[N+](CCCC)(CCCC)CCCC + CCCCN + O
303.15 K, 100 kPa
Conditions	viscosity [mPa·s]
x2 = 0, x3 = 0.0291	680
x2 = 0.0965, x3 = 0.0347	390
x2 = 0.194, x3 = 0.0301	188
x2 = 0.3198, x3 = 0.031	78
x2 = 0.4873, x3 = 0.0253	28
x2 = 0.6575, x3 = 0.0186	16
x2 = 0.7882, x3 = 0.0148	11
x2 = 0.8893, x3 = 0.0119	9

CCC[NH3+].O=[N+]([O-])[O-] + CCCC[NH3+].O=[N+]([O-])[O-]
101 kPa, frequency 0.00293 MHz, x1 = 0.5
Conditions	electrical conductivity [S/m]
293.15 K	0.496
313.15 K	1.02
323.15 K	1.36

101 kPa, x1 = 0.5
Conditions	viscosity [mPa·s]
293.15 K	100.4
313.15 K	45.4
323.15 K	32.6
328.15 K	28.1
343.15 K	18.8

CCC(=O)O.CCC(=O)[O-].CC[NH+](CC)CCO + CCCC[n+]1ccn(C)c1.COP(=O)([O-])OC
101 kPa
Conditions	viscosity [mPa·s]
278.15 K, x1 = 0.08	1956
283.15 K, x1 = 0.2364	446
283.15 K, x1 = 0.4953	205.6
283.15 K, x1 = 0.6252	170.9
283.15 K, x1 = 0.7416	147.7
288.15 K, x1 = 0.6252	123.8
293.15 K, x1 = 0.3281	154
293.15 K, x1 = 0.8667	70.8
298.15 K, x1 = 0.7416	60.3
298.15 K, x1 = 1	66.2
303.15 K, x1 = 0.08	280.9
303.15 K, x1 = 0.2364	123.4
303.15 K, x1 = 0.4183	70.2
303.15 K, x1 = 0.8667	41.6
308.15 K, x1 = 0.4183	54.9
308.15 K, x1 = 0.8667	32.8
313.15 K, x1 = 0.3281	53.8
313.15 K, x1 = 0.4953	39.2
318.15 K, x1 = 0.6252	27.36
323.15 K, x1 = 0.2364	47.3
323.15 K, x1 = 0.4953	25.98
328.15 K, x1 = 0.2364	38.66
328.15 K, x1 = 0.7416	16.29
328.15 K, x1 = 0.8667	14.65
333.15 K, x1 = 0.4953	18.11
333.15 K, x1 = 0.8667	12.33
333.15 K, x1 = 1	14.08
338.15 K, x1 = 0.08	48.11
338.15 K, x1 = 0.2364	26.76
338.15 K, x1 = 0.6252	13.4
338.15 K, x1 = 0.7416	11.64
343.15 K, x1 = 0.4953	13.09
348.15 K, x1 = 0.1549	25.27
348.15 K, x1 = 0.4183	12.61
348.15 K, x1 = 0.6252	9.95
348.15 K, x1 = 0.8667	7.75
353.15 K, x1 = 0.1549	21.56
353.15 K, x1 = 0.4183	10.98
358.15 K, x1 = 0.4183	9.63
358.15 K, x1 = 0.4953	8.59
358.15 K, x1 = 0.6252	7.61
363.15 K, x1 = 0.7416	5.82
363.15 K, x1 = 1	5.7
368.15 K, x1 = 0.08	17.66
368.15 K, x1 = 0.1549	14.09
368.15 K, x1 = 0.7416	5.16
373.15 K, x1 = 0.7416	4.6
373.15 K, x1 = 1	4.41

CC(C)=O + CCCC[n+]1ccn(C)c1.F[B-](F)(F)F
Conditions	electrical conductivity, 296.15 K [S/m]	viscosity, 303.15 K [mPa·s]	viscosity, 313.15 K [mPa·s]	viscosity, 323.15 K [mPa·s]
100 kPa, x2 = 0	–	0.303	0.276	0.255
101 kPa, x1 = 1	0.05	–	–	–

COCCOCCO + CCCC[n+]1ccn(C)c1.F[B-](F)(F)F
100 kPa
Conditions	viscosity [mPa·s]
283.15 K, x2 = 0.05366	7.07
283.15 K, x2 = 0.09486	8.3
283.15 K, x2 = 0.1969	12.44
283.15 K, x2 = 0.2893	17.54
283.15 K, x2 = 0.3913	25.12
283.15 K, x2 = 0.4909	35.39
283.15 K, x2 = 0.5826	48.46
283.15 K, x2 = 0.6949	71.9
283.15 K, x2 = 0.7838	100
283.15 K, x2 = 0.8792	145
283.15 K, x2 = 0.9489	192.9
293.15 K, x2 = 0.04883	4.923
293.15 K, x2 = 0.09356	5.88
293.15 K, x2 = 0.192	8.36
293.15 K, x2 = 0.292	11.92
293.15 K, x2 = 0.3812	15.94
293.15 K, x2 = 0.4892	22.53
293.15 K, x2 = 0.5841	30.52
293.15 K, x2 = 0.6808	41.95
293.15 K, x2 = 0.7796	58.1
293.15 K, x2 = 0.8752	81.9
293.15 K, x2 = 0.9414	109.4
303.15 K, x2 = 0.05005	3.91
303.15 K, x2 = 0.1374	4.662
303.15 K, x2 = 0.2026	6.323
303.15 K, x2 = 0.2965	8.36
303.15 K, x2 = 0.3975	11.28
303.15 K, x2 = 0.491	15.38
303.15 K, x2 = 0.5868	20.14
303.15 K, x2 = 0.6897	27.27
303.15 K, x2 = 0.7826	36.34
303.15 K, x2 = 0.8807	50.95
303.15 K, x2 = 0.9393	63.1
313.15 K, x2 = 0.04527	2.966
313.15 K, x2 = 0.09794	3.523
313.15 K, x2 = 0.2017	4.838
313.15 K, x2 = 0.2869	6.194
313.15 K, x2 = 0.3858	8.06
313.15 K, x2 = 0.4987	10.87
313.15 K, x2 = 0.5953	13.94
313.15 K, x2 = 0.6918	18.09
313.15 K, x2 = 0.7818	23.11
313.15 K, x2 = 0.8804	29.78
313.15 K, x2 = 0.9409	34.99

c1ccncc1 + CCCC[n+]1ccn(C)c1.F[B-](F)(F)F
298.15 K, 101 kPa
Conditions	electrical conductivity [S/m]	viscosity [mPa·s]
x1 = 0.1059	0.264	82
x1 = 0.2	0.347	58
x1 = 0.3028	0.456	39.2
x1 = 0.3969	0.601	26.4
x1 = 0.5033	0.792	16.4
x1 = 0.6063	1.01	9.9
x1 = 0.6873	1.17	6.39
x1 = 0.807	1.3	3.2
